Data from ChEMBL document CHEMBL3045068, “Effect of methomyl and oxamyl soil applications on early control of nematodes and insects” (Pest Manag Sci, 2011).
Values after ≈ are worked out from the molar mass of the structure shown.

What was measured:
Pisum sativum [1] = experiment: Phytotoxicity in Pisum sativum (pea) assessed as root dry weight at 4 kg ai/ha applied to soil measured up to 7 days post planting at 19 degC (reference value: 2 +/- 0.21 g); type: organism-based; settings: lathyrus oleraceus, in vivo, other, 168 h
Phaseolus lunatus [2] = experiment: Phytotoxicity in Phaseolus lunatus (lima bean) plant assessed as plant dry weight at 3.12 kg ai/ha applied to soil measured up to 14 days under green house conditions (reference value: 1.20 +/- 0.21 g); type: organism-based; settings: in vivo, other, 336 h
Solanum lycopersicum [3] = experiment: Phytotoxicity in Solanum lycopersicum (tomato) assessed as foliar edge burn at 200 ug/mL applied through foliar spray after 5 weeks; type: organism-based; settings: in vivo, other, 840 h
Phaseolus lunatus [4] = experiment: Phytotoxicity in Phaseolus lunatus (lima bean) plant assessed as plant dry weight at 2.12 kg ai/ha applied to soil measured up to 7 days under green house conditions (reference value: 1.20 +/- 0.21 g); type: organism-based; settings: in vivo, other, 168 h
Meloidogyne incognita [5] = experiment: Nematicidal activity against second juvenile stage of Meloidogyne incognita (root-knot nematode) infected lima bean plant assessed as emergence at 2 kg ai/ha applied to soil measured up to 7 days post planting under green house conditions (reference value: 83 +/- 5%); type: functional
Phaseolus lunatus [6] = experiment: Phytotoxicity in Phaseolus lunatus (lima bean) plant assessed as plant dry weight at 0.56 kg ai/ha applied to soil under green house conditions (reference value: 1.20 +/- 0.21 g); type: organism-based; settings: in vivo, other
Pisum sativum [7] = experiment: Phytotoxicity in Pisum sativum (pea) assessed as root dry weight at 3 kg ai/ha applied to soil measured up to 7 days post planting at 27 degC under green house conditions (reference value: 0.33 +/- 0.075 g); type: organism-based; settings: lathyrus oleraceus, in vivo, other, 168 h
Pisum sativum [8] = experiment: Phytotoxicity in Pisum sativum (pea) assessed as root dry weight at 4 kg ai/ha applied to soil measured up to 7 days post planting at 27 degC under green house conditions (reference value: 0.33 +/- 0.075 g); type: organism-based; settings: lathyrus oleraceus, in vivo, other, 168 h
Pisum sativum [9] = experiment: Phytotoxicity in Pisum sativum (pea) assessed as root dry weight at 3 kg ai/ha applied to soil measured up to 14 days post planting at 27 degC under green house conditions (reference value: 0.33 +/- 0.075 g); type: organism-based; settings: lathyrus oleraceus, in vivo, other, 336 h
Pisum sativum [10] = experiment: Phytotoxicity in Pisum sativum (pea) assessed as root dry weight at 2 kg ai/ha applied to soil measured up to 7 days post planting at 19 degC (reference value: 2 +/- 0.21 g); type: organism-based; settings: lathyrus oleraceus, in vivo, other, 168 h
Meloidogyne incognita [11] = experiment: Nematicidal activity against second juvenile stage of Meloidogyne incognita (root-knot nematode) infected lima bean plant assessed as reduction in root gall index at 1 kg ai/ha applied to soil measured during planting under green house conditions (reference value: 7 +/- 0.27%); type: functional
Phaseolus lunatus [12] = experiment: Phytotoxicity in Phaseolus lunatus (lima bean) root assessed as root dry weight at 0.56 kg ai/ha applied to soil under green house conditions (reference value: 0.36 +/- 0.071 g); type: organism-based; settings: in vivo, other
Gossypium hirsutum = experiment: Phytotoxicity in Gossypium hirsutum (cotton) assessed as concentration required to cause foliar edge burn applied through foliar spray after 4 weeks; type: organism-based; settings: in vivo, other, 672 h
Meloidogyne incognita [13] = experiment: Nematicidal activity against second juvenile stage of Meloidogyne incognita (root-knot nematode) infected pea plant assessed as emergence at 3 kg ai/ha applied to soil measured up to 14 days post planting under green house conditions (reference value: 75 +/- 13%); type: functional
Solanum lycopersicum [14] = experiment: Phytotoxicity in Solanum lycopersicum (tomato) assessed as concentration required to cause foliar edge burn applied to soil after 5 weeks; type: organism-based; settings: in vivo, 840 h
Pisum sativum [15] = experiment: Phytotoxicity in Pisum sativum (pea) assessed as emergence at 3 kg ai/ha applied to soil measured up to 7 days post planting at 19 degC relative to untreated control; type: organism-based; settings: lathyrus oleraceus, in vivo, other, 168 h
Meloidogyne incognita [16] = experiment: Nematicidal activity against second juvenile stage of Meloidogyne incognita (root-knot nematode) infected lima bean plant assessed as reduction in root gall index at 4 kg ai/ha applied to soil measured up to 14 days post planting under green house conditions (reference value: 7 +/- 0.27%); type: functional
Pisum sativum [17] = experiment: Phytotoxicity in Pisum sativum (pea) assessed as plant height at 4 kg ai/ha applied to soil measured up to 7 days post planting at 19 degC (reference value: 6.2 +/- 0.6 cm); type: organism-based; settings: lathyrus oleraceus, in vivo, other, 168 h
Spodoptera exigua = experiment: Insecticidal activity against Spodoptera exigua infested tomato assessed as mortality applied through foliar spray after 72 hr; type: functional
Meloidogyne incognita [18] = experiment: Nematicidal activity against second juvenile stage of Meloidogyne incognita (root-knot nematode) infected pea plant assessed as root fresh weight at 4 kg ai/ha applied to soil measured up to 7 days post planting under green house conditions (reference value: 1.83 +/- 0.3 g); type: functional
Aphis gossypii = experiment: Insecticidal activity against Aphis gossypii (cotton aphid) infested cotton assessed as mortality applied through foliar spray after 5 days; type: functional
Meloidogyne incognita [19] = experiment: Nematicidal activity against second juvenile stage of Meloidogyne incognita (root-knot nematode) assessed as mortality after 48 hr; type: functional
Meloidogyne incognita [20] = experiment: Nematicidal activity against second juvenile stage of Meloidogyne incognita (root-knot nematode) infected lima bean plant assessed as reduction in root gall index at 3 kg ai/ha applied to soil measured up to 7 days post planting under green house conditions (reference value: 7 +/- 0.27%); type: functional
Phaseolus lunatus [21] = experiment: Phytotoxicity in Phaseolus lunatus (lima bean) root assessed as root dry weight at 2.12 kg ai/ha applied to soil measured up to 7 days under green house conditions (reference value: 0.36 +/- 0.071 g); type: organism-based; settings: in vivo, other, 168 h
Meloidogyne incognita [22] = experiment: Nematicidal activity against second juvenile stage of Meloidogyne incognita (root-knot nematode) infected lima bean plant assessed as shoot dry weight at 3 kg ai/ha applied to soil measured up to 7 days post planting under green house conditions (reference value: 1.84 +/- 0.18 g); type: functional
Meloidogyne incognita [23] = experiment: Nematicidal activity against second juvenile stage of Meloidogyne incognita (root-knot nematode) infected lima bean plant assessed as emergence at 1 kg ai/ha applied to soil measured during planting under green house conditions (reference value: 83 +/- 5%); type: functional
Meloidogyne incognita [24] = experiment: Nematicidal activity against second juvenile stage of Meloidogyne incognita (root-knot nematode) infected lima bean plant assessed as shoot dry weight at 2 kg ai/ha applied to soil measured during planting under green house conditions (reference value: 1.84 +/- 0.18 g); type: functional
Meloidogyne incognita [25] = experiment: Nematicidal activity against second juvenile stage of Meloidogyne incognita (root-knot nematode) infected lima bean plant assessed as shoot dry weight at 2 kg ai/ha applied to soil measured up to 7 days post planting under green house conditions (reference value: 1.84 +/- 0.18 g); type: functional
Meloidogyne incognita [26] = experiment: Nematicidal activity against second juvenile stage of Meloidogyne incognita (root-knot nematode) infected pea plant assessed as root dry weight at 4 kg ai/ha applied to soil measured up to 7 days post planting under green house conditions (reference value: 0.25 +/- 0.041 g); type: functional
Phaseolus lunatus [27] = experiment: Phytotoxicity in Phaseolus lunatus (lima bean) root assessed as root dry weight at 1.56 kg ai/ha applied to soil measured up to 7 days under green house conditions (reference value: 0.36 +/- 0.071 g); type: organism-based; settings: in vivo, other, 168 h

CNC(=O)ON=C(C)SC [METHOMYL]
Activity (Pisum sativum [1]): 1.7 g
Activity (Phaseolus lunatus [2]): 0.87 g
Activity (Solanum lycopersicum [3]): Non-toxic
Activity (Phaseolus lunatus [4]): 0.66 g
Activity (Meloidogyne incognita [5]): 100%
Activity (Phaseolus lunatus [6]): 1.2 g
Activity (Pisum sativum [7]): 0.2 g
Activity (Pisum sativum [8]): 0.28 g
Activity (Pisum sativum [9]): 0.27 g
Activity (Pisum sativum [10]): 3.1 g
Root_galling_index (Meloidogyne incognita [11]): 0%
Activity (Phaseolus lunatus [12]): 0.35 g
Activity (Gossypium hirsutum): 500 µg/mL
Activity (Meloidogyne incognita [13]): 63%
Activity (Solanum lycopersicum [14]): 100 µg/mL
Activity (Pisum sativum [15]): 87%
Root_galling_index (Meloidogyne incognita [16]): 0%
Activity (Pisum sativum [17]): 6.3 cm
LC90 (Spodoptera exigua): 60 µg/mL (≈ 370 µM)
LC50 (Spodoptera exigua; Spodoptera exigua, foliar, 72 h): 29 µg/mL (≈ 179 µM)
Activity (Meloidogyne incognita [18]): 1.59 g
LC90 (Aphis gossypii): 54 µg/mL (≈ 333 µM)
LC50 (Aphis gossypii; Aphis gossypii, foliar, 120 h): 25 µg/mL (≈ 154 µM)
LC90 (Meloidogyne incognita [19]): 15.2 mg/L (≈ 93.7 µM)
LC50 (Meloidogyne incognita [19]; Meloidogyne incognita, Juvenile stage, 48 h): 4.9 µg/mL (≈ 30.2 µM)
Root_galling_index (Meloidogyne incognita [20]): 0%
Activity (Phaseolus lunatus [21]): 0.2 g
Activity (Meloidogyne incognita [22]): 1.39 g
Activity (Meloidogyne incognita [23]): 100%
Activity (Meloidogyne incognita [24]): 1.59 g
Activity (Meloidogyne incognita [25]): 1.83 g
Activity (Meloidogyne incognita [26]): 0.28 g
Activity (Phaseolus lunatus [27]): 0.26 g
